Measured values from paper PMC4255280 (Cell metabolism, 2014).

What was measured:
MC4R [1] = experiment: α-MSH ISC response in human colon mucosa after antagonist pretreatment; assay type: cell-based; settings: BIBO 300 nM, BIIE 1 μM, HS014 100 nM, each alone, 30 min prior to α-MSH
MC4R [2] = molecular target: MC4R (Mus musculus, UniProt P56450); experiment: Short-circuit current; assay type: cell-based
GPR119 = experiment: Short-circuit current; assay type: cell-based, mouse; settings: MC4R−/− mice, 10 μM apical

MC4R (Mus musculus, UniProt P56450), sequence (P56450 whole entry): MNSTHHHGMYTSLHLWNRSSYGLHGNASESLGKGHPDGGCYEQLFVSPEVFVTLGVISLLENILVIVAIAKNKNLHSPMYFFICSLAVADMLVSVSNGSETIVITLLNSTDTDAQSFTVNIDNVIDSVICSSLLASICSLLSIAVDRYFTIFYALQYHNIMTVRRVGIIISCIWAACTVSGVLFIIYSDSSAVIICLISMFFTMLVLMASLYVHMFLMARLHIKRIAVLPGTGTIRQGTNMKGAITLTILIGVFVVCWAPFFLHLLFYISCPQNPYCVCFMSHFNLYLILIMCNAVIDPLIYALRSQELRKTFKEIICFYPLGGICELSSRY

| Compound | Effect of pretreatment on α-MSH (1 μM, bl) ISC response in human colon mucosa (MC4R [1]) | Effect of pretreatment on α-MSH (1 μM, bl) ISC response in mouse colon (MC4R [2]) | Response in MC4R−/− mucosae versus MC4R+/+ mucosae (GPR119) |
| --- | --- | --- | --- |
| NC(=O)NCc1ccc(CNC(=O)[C@@H](CCCN=C(N)N)NC(=O)C(c2ccccc2)c2ccccc2)cc1 [BIBO3304] | blockade | almost completely blocked |  |
| CC(C)(C)OC(=O)N1CCC(OCc2nc(-c3ccncc3)no2)CC1 [PSN632408] |  |  | not significantly different |
| N=C(N)NCCC[C@H](NC(=O)CC1(CC(=O)N2CCN(C3c4ccccc4NC(=O)c4ccccc43)CC2)CCCC1)C(=O)NCCn1c(=O)n(-c2ccccc2)n(-c2ccccc2)c1=O (some centres unmarked) [BIIE0246] | not by BIIE alone |  |  |
| NC1=N[C@H](O)[C@H]2[C@H]3O[C@]4(O)O[C@@H]([C@@H](O)[C@@]2(N1)[C@@H]4O)[C@]3(O)CO [tetrodotoxin] |  | not tetrodotoxin (TTX) sensitive |  |
